Source: ChEMBL document CHEMBL5357082, “Identification and Optimization of Small Molecule Pyrazolopyrimidine TLR7 Agonists for Applications in Immuno-oncology” (ACS Med Chem Lett, 2024)
pEC50, pIC50: −log10 of the molar value. Activity calls are given as the source filed them. The calls are words filed in the database; no cut-off is given here.

Assays:
Toll-like receptor 7 [1] = target: T1, Toll-like receptor 7 (Homo sapiens, UniProt Q9NYK1); experiment: Agonist activity at human TLR7 in HEK-Blue hTLR7 cells harboring SEAP reporter transgene incubated for 18 hrs by quanti-blue reagent based assay; type: cell-based
T1 sequence (Q9NYK1 whole entry): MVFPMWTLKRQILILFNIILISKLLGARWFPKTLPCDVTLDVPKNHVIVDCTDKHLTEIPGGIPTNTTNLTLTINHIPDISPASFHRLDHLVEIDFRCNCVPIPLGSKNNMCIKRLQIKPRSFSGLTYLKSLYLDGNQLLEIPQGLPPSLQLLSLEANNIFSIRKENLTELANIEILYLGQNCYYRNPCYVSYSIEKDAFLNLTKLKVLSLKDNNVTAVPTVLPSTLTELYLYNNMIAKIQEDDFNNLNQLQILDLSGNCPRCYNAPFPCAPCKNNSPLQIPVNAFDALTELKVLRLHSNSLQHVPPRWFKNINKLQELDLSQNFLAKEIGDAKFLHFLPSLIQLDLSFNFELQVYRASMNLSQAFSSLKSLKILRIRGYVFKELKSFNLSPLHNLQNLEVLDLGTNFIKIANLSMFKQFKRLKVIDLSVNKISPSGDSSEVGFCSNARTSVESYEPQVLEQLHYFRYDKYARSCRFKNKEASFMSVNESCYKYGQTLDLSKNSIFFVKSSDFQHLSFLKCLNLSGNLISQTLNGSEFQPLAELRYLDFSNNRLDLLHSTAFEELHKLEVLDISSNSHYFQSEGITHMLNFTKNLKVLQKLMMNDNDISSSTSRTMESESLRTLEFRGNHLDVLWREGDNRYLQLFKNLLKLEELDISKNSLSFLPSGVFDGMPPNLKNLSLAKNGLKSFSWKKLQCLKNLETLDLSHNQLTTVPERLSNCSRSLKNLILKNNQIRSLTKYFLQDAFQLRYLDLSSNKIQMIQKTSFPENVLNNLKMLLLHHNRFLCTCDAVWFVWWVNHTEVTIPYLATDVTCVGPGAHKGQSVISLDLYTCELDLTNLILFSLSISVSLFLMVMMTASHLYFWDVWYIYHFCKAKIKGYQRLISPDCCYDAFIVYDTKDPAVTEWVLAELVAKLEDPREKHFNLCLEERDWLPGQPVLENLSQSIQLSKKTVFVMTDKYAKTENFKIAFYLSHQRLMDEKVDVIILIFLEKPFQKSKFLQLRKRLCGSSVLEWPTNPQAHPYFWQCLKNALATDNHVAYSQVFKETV

Toll-like receptor 7 [2] = target: T2, Toll-like receptor 7 (Mus musculus, UniProt P58681); experiment: (§1) Agonist activity at mouse TLR7
T2 sequence (P58681 whole entry): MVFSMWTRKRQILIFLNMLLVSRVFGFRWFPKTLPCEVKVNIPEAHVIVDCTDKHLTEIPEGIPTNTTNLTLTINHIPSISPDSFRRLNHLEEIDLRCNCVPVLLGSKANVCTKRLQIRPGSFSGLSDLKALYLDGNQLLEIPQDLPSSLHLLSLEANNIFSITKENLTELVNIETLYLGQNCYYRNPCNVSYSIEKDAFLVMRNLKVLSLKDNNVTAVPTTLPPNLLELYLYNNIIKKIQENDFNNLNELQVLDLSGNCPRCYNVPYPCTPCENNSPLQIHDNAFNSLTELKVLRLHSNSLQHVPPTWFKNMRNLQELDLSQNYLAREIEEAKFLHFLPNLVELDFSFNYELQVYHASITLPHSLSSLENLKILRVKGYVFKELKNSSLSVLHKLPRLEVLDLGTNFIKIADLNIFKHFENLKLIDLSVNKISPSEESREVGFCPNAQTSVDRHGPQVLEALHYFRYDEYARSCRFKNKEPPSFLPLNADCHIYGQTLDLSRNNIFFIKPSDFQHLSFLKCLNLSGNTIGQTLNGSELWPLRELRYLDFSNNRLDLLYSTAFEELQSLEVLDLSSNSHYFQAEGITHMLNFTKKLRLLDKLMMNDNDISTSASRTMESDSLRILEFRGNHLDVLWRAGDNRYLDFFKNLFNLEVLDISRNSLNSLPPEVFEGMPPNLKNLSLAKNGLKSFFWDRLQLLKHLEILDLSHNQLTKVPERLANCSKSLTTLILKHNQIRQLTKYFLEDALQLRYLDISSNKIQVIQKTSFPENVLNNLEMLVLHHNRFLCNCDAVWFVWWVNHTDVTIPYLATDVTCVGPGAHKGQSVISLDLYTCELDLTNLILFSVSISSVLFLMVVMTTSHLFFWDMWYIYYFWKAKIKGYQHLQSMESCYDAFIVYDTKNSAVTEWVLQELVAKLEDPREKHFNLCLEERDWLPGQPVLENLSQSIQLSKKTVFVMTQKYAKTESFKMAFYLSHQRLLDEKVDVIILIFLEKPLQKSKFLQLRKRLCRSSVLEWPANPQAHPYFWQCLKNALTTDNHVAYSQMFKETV

[3] = Metabolic stability in human liver microsomes assessed as compound remaining at 0.5 uM incubated for 10 mins in presence of NADPH by UV absorbance based assay; type: ADME, Microsome; conditions: read-out: Stability
[4] = Metabolic stability in mouse liver microsomes assessed as compound remaining at 0.5 uM incubated for 10 mins in presence of NADPH by UV absorbance based assay; type: ADME, Microsome; conditions: read-out: Stability
[5] = target: Voltage-gated inwardly rectifying potassium channel KCNH2 (Homo sapiens, UniProt Q12809); experiment: Inhibition of hERG; type: toxicity
[6] = Permeability of compound at pH 7.4 by PAMPA; type: ADME; conditions: read-out: permeability
[7] = Cytotoxicity against PHA-activated T-cells (unknown origin) assessed as inhibition of IL-2 induced cell proliferation measured after 72 hrs by MTS assay; type: toxicity, cell-based
Cytochrome P450 1A2 = target: T3, Cytochrome P450 1A2 (Homo sapiens, UniProt P05177); experiment: Inhibition of CYP1A2 (unknown origin); type: ADME
T3 sequence (P05177 whole entry): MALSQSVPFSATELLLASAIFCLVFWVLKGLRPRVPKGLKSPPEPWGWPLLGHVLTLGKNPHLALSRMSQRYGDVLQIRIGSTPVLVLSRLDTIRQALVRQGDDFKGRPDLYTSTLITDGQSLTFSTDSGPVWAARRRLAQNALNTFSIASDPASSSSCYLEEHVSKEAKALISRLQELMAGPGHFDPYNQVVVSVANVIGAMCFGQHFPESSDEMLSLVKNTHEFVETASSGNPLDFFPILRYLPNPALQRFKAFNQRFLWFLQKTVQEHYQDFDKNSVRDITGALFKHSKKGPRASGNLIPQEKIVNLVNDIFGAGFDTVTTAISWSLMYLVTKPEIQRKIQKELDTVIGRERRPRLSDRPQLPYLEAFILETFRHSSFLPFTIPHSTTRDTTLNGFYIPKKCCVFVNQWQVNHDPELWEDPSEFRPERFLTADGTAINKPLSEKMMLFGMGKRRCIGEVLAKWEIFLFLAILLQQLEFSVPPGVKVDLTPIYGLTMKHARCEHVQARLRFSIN

Cytochrome P450 2C19 = Cytochrome P450 2C19 (Homo sapiens, UniProt P33261); experiment: Inhibition of CYP2C19 (unknown origin); type: ADME
Cytochrome P450 2C9 = Cytochrome P450 2C9 (Homo sapiens, UniProt P11712); experiment: Inhibition of CYP2C9 (unknown origin); type: ADME
Cytochrome P450 2D6 = Cytochrome P450 2D6 (Homo sapiens, UniProt P10635); experiment: Inhibition of CYP2D6 (unknown origin); type: ADME
Cytochrome P450 3A4 [8] = target: T4, Cytochrome P450 3A4 (Homo sapiens, UniProt P08684); experiment: Inhibition of CYP3A4 (unknown origin) using BFC as substrate; type: ADME
Cytochrome P450 2C8 = target: T5, Cytochrome P450 2C8 (Homo sapiens, UniProt P10632); experiment: Inhibition of CYP2C8 (unknown origin); type: ADME
T5 sequence (P10632 whole entry): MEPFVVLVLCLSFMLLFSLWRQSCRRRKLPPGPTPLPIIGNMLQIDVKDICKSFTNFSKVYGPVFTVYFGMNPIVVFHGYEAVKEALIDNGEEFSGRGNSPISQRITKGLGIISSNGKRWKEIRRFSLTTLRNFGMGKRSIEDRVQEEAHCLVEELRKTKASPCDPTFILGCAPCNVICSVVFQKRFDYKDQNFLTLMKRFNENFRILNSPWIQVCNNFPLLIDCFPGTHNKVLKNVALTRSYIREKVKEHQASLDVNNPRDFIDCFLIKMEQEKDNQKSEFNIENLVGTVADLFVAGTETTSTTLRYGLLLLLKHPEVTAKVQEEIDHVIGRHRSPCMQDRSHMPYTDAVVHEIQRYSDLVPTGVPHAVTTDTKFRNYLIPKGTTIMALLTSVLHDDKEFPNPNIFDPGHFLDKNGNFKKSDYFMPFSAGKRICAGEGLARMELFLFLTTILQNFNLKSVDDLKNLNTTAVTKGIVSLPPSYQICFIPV

Cytochrome P450 3A4 [9] = target: T4, Cytochrome P450 3A4; experiment: Inhibition of CYP3A4 (unknown origin) using BFC as substrate preincubated with compound followed by substrate addition at 5 mins; type: ADME
Cytochrome P450 3A4 [10] = target: T4, Cytochrome P450 3A4; experiment: Inhibition of CYP3A4 (unknown origin) using BFC as substrate preincubated with compound followed by substrate addition at 30 mins; type: ADME
[11] = target: T6, Toll-like receptor 7 (Mus musculus) (UniProt P58681); experiment: as §1
T6 sequence (whole entry): T2 sequence (P58681 whole entry)

Chain of Cytochrome P450 2C19 (P33261 whole entry): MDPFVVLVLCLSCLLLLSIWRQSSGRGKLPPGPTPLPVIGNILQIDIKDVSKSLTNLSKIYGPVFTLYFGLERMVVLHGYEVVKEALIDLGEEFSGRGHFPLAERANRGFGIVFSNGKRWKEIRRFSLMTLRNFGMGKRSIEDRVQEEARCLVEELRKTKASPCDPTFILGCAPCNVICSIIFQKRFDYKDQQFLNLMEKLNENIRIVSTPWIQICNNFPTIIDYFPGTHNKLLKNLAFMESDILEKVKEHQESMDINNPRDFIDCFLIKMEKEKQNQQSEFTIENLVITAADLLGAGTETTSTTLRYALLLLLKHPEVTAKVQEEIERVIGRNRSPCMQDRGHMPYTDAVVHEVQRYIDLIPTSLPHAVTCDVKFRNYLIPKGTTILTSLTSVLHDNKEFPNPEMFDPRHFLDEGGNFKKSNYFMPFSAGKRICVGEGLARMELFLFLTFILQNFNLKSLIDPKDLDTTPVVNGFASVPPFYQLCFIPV
Chain of Cytochrome P450 2C9 (P11712 whole entry): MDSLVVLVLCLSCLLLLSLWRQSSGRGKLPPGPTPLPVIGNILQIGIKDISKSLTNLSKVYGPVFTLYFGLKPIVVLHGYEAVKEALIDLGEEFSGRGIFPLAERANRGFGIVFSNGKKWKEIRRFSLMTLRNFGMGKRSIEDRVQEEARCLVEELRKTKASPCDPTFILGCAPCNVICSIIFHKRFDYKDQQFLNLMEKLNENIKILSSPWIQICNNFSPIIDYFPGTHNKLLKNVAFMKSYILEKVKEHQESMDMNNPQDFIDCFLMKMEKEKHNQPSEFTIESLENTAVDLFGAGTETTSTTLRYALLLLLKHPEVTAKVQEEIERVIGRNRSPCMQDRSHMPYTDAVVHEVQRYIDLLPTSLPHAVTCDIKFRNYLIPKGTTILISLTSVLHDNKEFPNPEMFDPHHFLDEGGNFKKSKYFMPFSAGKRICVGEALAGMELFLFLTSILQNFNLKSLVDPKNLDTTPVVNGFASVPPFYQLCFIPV
T4 sequence (P08684 whole entry): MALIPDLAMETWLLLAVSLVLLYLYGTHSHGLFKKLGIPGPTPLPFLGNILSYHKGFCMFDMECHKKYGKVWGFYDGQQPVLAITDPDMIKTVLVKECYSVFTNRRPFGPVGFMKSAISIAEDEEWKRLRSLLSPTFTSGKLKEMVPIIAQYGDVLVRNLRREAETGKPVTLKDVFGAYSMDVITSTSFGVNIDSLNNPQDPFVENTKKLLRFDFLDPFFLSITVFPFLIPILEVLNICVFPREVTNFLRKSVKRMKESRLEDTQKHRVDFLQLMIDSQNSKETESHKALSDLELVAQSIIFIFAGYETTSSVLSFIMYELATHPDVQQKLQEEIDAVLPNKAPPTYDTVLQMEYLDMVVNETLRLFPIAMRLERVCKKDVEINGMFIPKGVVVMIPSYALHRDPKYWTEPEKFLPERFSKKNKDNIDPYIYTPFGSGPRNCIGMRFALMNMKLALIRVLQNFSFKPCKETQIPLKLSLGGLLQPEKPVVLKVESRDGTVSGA
Chain of Cytochrome P450 2D6 (P10635 whole entry): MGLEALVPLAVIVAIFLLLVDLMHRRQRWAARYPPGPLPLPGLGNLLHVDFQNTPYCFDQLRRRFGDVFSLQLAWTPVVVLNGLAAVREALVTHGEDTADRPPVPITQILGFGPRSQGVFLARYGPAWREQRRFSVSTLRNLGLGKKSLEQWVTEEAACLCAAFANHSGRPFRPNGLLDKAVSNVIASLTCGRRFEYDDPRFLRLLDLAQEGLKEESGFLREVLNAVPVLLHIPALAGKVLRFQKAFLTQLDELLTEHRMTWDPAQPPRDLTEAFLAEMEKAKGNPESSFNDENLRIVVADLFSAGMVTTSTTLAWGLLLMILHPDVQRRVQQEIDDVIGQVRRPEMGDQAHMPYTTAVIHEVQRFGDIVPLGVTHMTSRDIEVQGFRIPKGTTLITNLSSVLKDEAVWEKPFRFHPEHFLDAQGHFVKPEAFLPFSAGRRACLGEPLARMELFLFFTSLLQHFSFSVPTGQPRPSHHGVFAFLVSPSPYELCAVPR
Chain of Voltage-gated inwardly rectifying potassium channel KCNH2 (Q12809 whole entry): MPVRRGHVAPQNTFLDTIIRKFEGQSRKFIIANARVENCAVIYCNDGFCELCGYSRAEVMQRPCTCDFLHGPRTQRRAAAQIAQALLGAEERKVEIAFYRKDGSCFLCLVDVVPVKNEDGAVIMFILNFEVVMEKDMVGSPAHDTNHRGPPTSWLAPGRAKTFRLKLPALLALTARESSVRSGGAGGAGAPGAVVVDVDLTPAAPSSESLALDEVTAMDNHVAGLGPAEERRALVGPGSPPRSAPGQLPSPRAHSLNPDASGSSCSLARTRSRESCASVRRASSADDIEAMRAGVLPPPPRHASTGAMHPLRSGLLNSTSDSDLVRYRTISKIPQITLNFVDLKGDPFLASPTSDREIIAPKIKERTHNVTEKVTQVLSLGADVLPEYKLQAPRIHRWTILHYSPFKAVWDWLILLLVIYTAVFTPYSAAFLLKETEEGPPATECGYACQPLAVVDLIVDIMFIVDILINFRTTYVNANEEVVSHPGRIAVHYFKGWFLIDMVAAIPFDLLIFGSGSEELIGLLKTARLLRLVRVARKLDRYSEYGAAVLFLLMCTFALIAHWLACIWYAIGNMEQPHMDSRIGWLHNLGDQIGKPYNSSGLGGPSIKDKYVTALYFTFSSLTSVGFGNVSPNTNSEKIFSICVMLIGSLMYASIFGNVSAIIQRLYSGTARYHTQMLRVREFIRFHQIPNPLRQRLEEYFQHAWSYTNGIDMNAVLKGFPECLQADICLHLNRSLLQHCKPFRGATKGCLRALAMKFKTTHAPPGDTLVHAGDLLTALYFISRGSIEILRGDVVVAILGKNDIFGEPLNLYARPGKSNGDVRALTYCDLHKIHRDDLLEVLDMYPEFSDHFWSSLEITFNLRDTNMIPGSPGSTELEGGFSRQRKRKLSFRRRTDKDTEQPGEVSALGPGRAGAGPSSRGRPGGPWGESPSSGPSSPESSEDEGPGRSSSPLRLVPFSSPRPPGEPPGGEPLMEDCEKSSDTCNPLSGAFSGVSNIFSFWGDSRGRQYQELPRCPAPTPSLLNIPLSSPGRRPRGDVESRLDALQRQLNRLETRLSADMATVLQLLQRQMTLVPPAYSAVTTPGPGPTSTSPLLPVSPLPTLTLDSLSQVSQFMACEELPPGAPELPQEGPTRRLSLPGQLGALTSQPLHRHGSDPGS

| Compound | pEC50 (Toll-like receptor 7 [1]) | pEC50 (Toll-like receptor 7 [2]) | remaining at 10 min, 0.5 µM [3] [%] | remaining at 10 min, 0.5 µM [4] [%] | Papp [6] [×10⁻⁶ cm/s] | pIC50 (Cytochrome P450 1A2) | pIC50 (Cytochrome P450 2C19) | pIC50 (Cytochrome P450 2C9) | pIC50 (Cytochrome P450 2D6) | pIC50 (Cytochrome P450 3A4 [8]) | pIC50 (Cytochrome P450 2C8) | pIC50 (Cytochrome P450 3A4 [9]) | pIC50 (Cytochrome P450 3A4 [10]) | Activity [11] | pIC50 [5] | IC50 at 72 h [7] [µM] |
| --- | --- | --- | --- | --- | --- | --- | --- | --- | --- | --- | --- | --- | --- | --- | --- | --- |
| CCC[C@@H](CCO)Nc1nc(N)nc2cnn(Cc3ncc(C4CCNCC4)cc3OC)c12 | 6.79 | 6.29 | 84 | 85 | 0.9 | < 4.70 | < 4.70 | < 4.70 | < 4.70 | < 4.70 | < 4.70 | < 4.70 | < 4.70 | – | < 4.30 | > 25 |
| CCC[C@@H](CCO)Nc1nc(N)nc2cnn(Cc3ncc(C4CCN(C(C)C)CC4)cc3OC)c12 | 7.74 | 7.39 | 80 | 78 | 93 | < 4.70 | < 4.70 | < 4.70 | < 4.70 | < 4.70 | < 4.70 | < 4.70 | < 4.70 | – | < 4.30 | > 25 |
| CCC[C@@H](CCO)Nc1nc(N)nc2cnn(Cc3ncc(C4CCN(CC#N)CC4)cc3OC)c12 | 6.84 | – | 65 | 67 | – | < 4.70 | < 4.70 | < 4.70 | < 4.70 | < 4.70 | < 4.70 | < 4.70 | < 4.70 | inactive | 4.52 | > 25 |

More lines, main results first:

| pEC50 (Toll-like receptor 7 [1]) | pEC50 (Toll-like receptor 7 [2]) | remaining at 10 min, 0.5 µM [3] [%] | remaining at 10 min, 0.5 µM [4] [%] | Papp [6] [×10⁻⁶ cm/s] | pIC50 (Cytochrome P450 1A2) | pIC50 (Cytochrome P450 2C19) | pIC50 (Cytochrome P450 2C9) | pIC50 (Cytochrome P450 2D6) | pIC50 (Cytochrome P450 3A4 [8]) | pIC50 (Cytochrome P450 2C8) | pIC50 (Cytochrome P450 3A4 [9]) | pIC50 (Cytochrome P450 3A4 [10]) | Activity [11] | Compound | pIC50 [5] | IC50 at 72 h [7] [µM] |
| --- | --- | --- | --- | --- | --- | --- | --- | --- | --- | --- | --- | --- | --- | --- | --- | --- |
| – | 7.12 | 78 | 76 | 6.6 | < 4.70 | < 4.70 | < 4.70 | < 4.70 | < 4.70 | < 4.70 | < 4.70 | < 4.70 | – | CCC[C@@H](CCO)Nc1nc(N)nc2cnn(Cc3ncc(C4CCN(C)CC4)cc3OC)c12 | 4.37 | > 25 |
| – | – | 100 | 100 | – | < 4.70 | < 4.70 | < 4.70 | < 4.70 | < 4.70 | < 4.70 | < 4.70 | < 4.70 | inactive | CCC[C@@H](CCO)Nc1nc(N)nc2cnn(Cc3ncc(C4CCN(C5CCNCC5)CC4)cc3OC)c12 | 4.49 | > 25 |
| 6.57 | – | 67 | 95 | – | < 4.70 | < 4.70 | < 4.70 | < 4.70 | < 4.70 | < 4.70 | < 4.70 | < 4.70 | inactive | CCC[C@H](CCO)Nc1nc(N)nc2cnn(Cc3ncc(C4CCN(C5CCOCC5)CC4)cc3OC)c12 | < 4.30 | > 25 |
